Ends that are not written are not given here.
Tested on: UVB-irradiated human keratinocytes
Test: Survival of UVB-irradiated keratinocytes, MTS viability (Example 1)
Assay type: cell-based
Settings: for decreased survival rate: 45 mJ/cm2 UV
Protocol: Orsirtine™ ((SEQ ID No. 8) G-L-Y-D-N-L-E) and resveratrol, […], were tested for their ability to improve survival of UVB-irradiated human keratinocytes.
Normal human keratinocytes were cultured in Epilife Medium with Human Keratinocyte Growth Supplement. The cells were sub-cultured into 96-well plates (Costar). Keratinocytes were pretreated with resveratrol (25 μM) and Orsirtine (1%, 3%) by themselves, and in a complex of resveratrol (25 μM) and Orsirtine™ (3%). Keratinocytes were treated with the undiluted complex and with dilutions of 1:2, 1:4 and 1:8 (complex: Epilife media).
Keratinocytes were incubated with these treatments overnight at 37° C.; 5% CO2. After 24 hours, the treatment was aspirated and keratinocytes were washed once in D-PBS. 100 μl of D-PBS was added for the irradiation. The cells were subjected to UVB irradiation at 0, 45, 90 and 135 mJ/cm^2 UVB. After the irradiation, D-PBS was removed. Keratinocytes were post treated appropriately and incubated overnight at 37° C.; 5% CO2. The next day, cells were assayed for viability, utilizing MTS reagent (CellTiter96, Promega). Absorbance readings were taken on the SpectraMax190 spectrophotometer (Molecular Devices) at 490 nm following an approximate two hour incubation at 37° C.; 5% CO2.

[1] = Orsirtine 3% alone, listed as Orsirtine ™

Row | Compound | decreased survival rate (just resveratrol (25 μM)) [%] | Increased survival after 90 mJ/cm^2 UV (Resveratrol 25 μM alone) [%] | Increased survival after 135 mJ/cm^2 UV (Resveratrol 25 μM alone) [%] | decreased survivability (UVB of 90 mJ/cm^2, 25 μM Resveratrol by itself) [%] | decreased survival rate (just Orsirtine 3%) [%] | Increased survival after 90 mJ/cm^2 UV (Orsirtine 1% alone) [%] | Increased survival after 135 mJ/cm^2 UV (Orsirtine 1% alone) [%] | Increased survival after 90 mJ/cm^2 UV (Orsirtine 3% alone) [%] | Increased survival after 135 mJ/cm^2 UV (Orsirtine 3% alone) [%] | Increased survival after 90 mJ/cm^2 UV [1] [%] | Increased survival after 135 mJ/cm^2 UV [1] [%]
1 | Oc1ccc(/C=C\c2cc(O)cc(O)c2)cc1 [Resveratrol, 3,5,4′-trihydroxystilbene, reference compound] | 20 | −15 | 22 | 15 | – | – | – | – | – | – | –
2 | GLYDNLE [Orsirtine™, peptide G-L-Y-D-N-L-E, INCI Water (and) Glycerin (and) Oryza Sativa (Rice) Extract, from ISP Vincience] | – | – | – | – | 8 | −17 | 5 | 11 | 26 | 11 | 26

— patent publication US8703161B2, “Skin repair compositions comprising circadian gene activators and a synergistic combination of Sirt1 gene activators” (ELC Management, LLC, priority 2007, dated 2014)
